Patent US20240261412A1, “NUTRACEUTICAL COMPOSITION FOR DELIVERY OF HYDROPHILIC AND HYDROPHOBIC BIOACTIVE SUBSTANCES” (AKAY NATURAL INGREDIENTS PRIVATE LIMITED, priority 2021, published 2024)
Several values for one entry are separate records, joined by “and”; a condition that tells them apart may be missing. Equal values may be shown once.

Columns and labels:
[1] = In vitro release kinetics of trans-resveratrol formulation (USP dissolution apparatus); assay type: physicochemical; settings: pH 6.5 and 2, FIG. 2
Procedure: Briefly, a 50 mg of RF-20 was dispersed in a 10 mL solution of appropriate pH and kept under constant stirring at 37±0.5° C. […] The amount of resveratrol content in the solution was determined by HPLC, with the help of a calibration curve. The experiment was performed in triplicate and the mean cumulative percentage of released resveratrol was calculated and plotted against time to follow the release kinetics.

[2] = Pharmacokinetics study of resveratrol, randomized double-blinded crossover, capsules and sachets; assay type: in vivo, human; settings: for Tmax: human, plasma, read-out: Free Resveratrol Tmax
Procedure: The bioavailability study in human subjects was carried out in two phases. In the first phase, identical hard shell gelatin capsules of either the trans-resveratrol powder formulation obtained in example 1 (RF-20) or unformulated resveratrol (U-tRES) containing 80 mg of trans-resveratrol were provided. […] The unformulated capsule contained 80±5 mg of trans-resveratrol with 98.2% purity isolated from Japanese Knotweed (U-tRES) by an ethanol/water extraction process and about 300 mg of microcrystalline cellulose as an excipient. In the second phase, the same dose of either the trans-resveratrol powder formulation or the unformulated resveratrol was administered in identical stick packs, each weighing about 3 g. Maltodextrin was used as an additive to make up the sachet packs to 3 g and the participants were asked to drink one sachet with about 240 mL of water. The double-blinded, placebo-controlled, randomized pharmacokinetic study was conducted using both capsules and sachets, to investigate the influence of delivery form on the relative bioavailability of trans-resveratrol from RF-20 and U-tRES. Each dose of either the resveratrol powder formulation or the unformulated resveratrol delivered 80±5 mg of trans-resveratrol. […] The blood samples were analysed by tandem mass spectrometry using QTRAP technology to detect, confirm and quantify ‘free’ resveratrol content in biomatrices.

[3] = Pharmacokinetics of fisetin powder formulation in healthy human subjects; assay type: in vivo; settings: human plasma
Procedure: The bioavailability of the fisetin formulation was evaluated in healthy human subjects. It has been evaluated in a single dose, randomized, comparative, double-blinded crossover design was adopted to evaluate the difference in the bioavailability and pharmacokinetic parameters (Cmax, AUC, Tmax, and t½) of free (unconjugated) fisetin and geraldol following the oral administration of a fisetin formulation obtained in example 6 (FF-20) and unformulated fisetin (UF). The participants were provided with a capsule contained 500±25 mg of UF or FF-20. Around 50 mg of microcrystalline cellulose was present in each capsule as a flow-improving excipient. Following administration, blood samples (2 mL) were collected 5 min (t0) prior to oral dosing and subsequently at 0.5, 1, 2, 3, 5, 8, and 12 h after oral ingestion of UF or FF-20, using an indwelling venous cannula. Participants were provided with a standardized breakfast, lunch, snack, and dinner respectively at 1, 4, 8, and 12 h after dosing. Plasma was separated by centrifugation at 11,950×g for 10 min at 4° C. and stored for a maximum of two days at −20° C. for analysis. Fisetin and geraldol in plasma samples were extracted and subjected to UPLC-ESI-MS/MS analyses.

[4] = Pharmacokinetics of calcium ascorbate formulation in healthy volunteers; assay type: in vivo, human; settings: single oral dose of 1000 mg
Excerpt: The relative bioavailability of the calcium ascorbate formulation obtained in Example 5 (FC+) with respect to the unformulated CAAS (UF-CAAS) powder with >98% purity was investigated in healthy volunteers.
The study was designed as a randomized, double-blinded, single dose study on healthy volunteers. Healthy volunteers (males and females) (n ¼14) aged 18 to 65 years having BMI between 18-25 kgm^−2 were enrolled for the study. Those who were having a history of gut disorders such as irritable bowel syndrome, ulcerative colitis, gastro-oesophageal reflux.
Selected participants were randomized into one of the three treatment arms consisting of three single dose treatments, with either formulated (tablets and capsules) or unformulated (UFCAAS) tablets.
Tablets and hard-shell two-piece hypromellose capsules of both FC+ and UF-CAAS were prepared in such a way that each tablet weighs about 1000±25 mg and each capsule contains 500±25 mg with similar content of CAAS. The study participants were orally administered with a single dose of 1000 mg tablet or capsule as per the study protocol, along with 200±10 mL of normal drinking water.
The quantification of calcium ascorbate in plasma was carried out by a validated HPLC method.

[5] = In vitro release kinetics of calcium ascorbate formulation; assay type: physicochemical; settings: stomach and intestinal pH conditions, FIG. 5
Procedure: The in vitro release of ascorbic acid from the calcium ascorbate powder formulation was determined in water containing 1.6 mmol of the disodium salt of EDTA (ethylenediamine tetra acetic acid) at pH 2.0 and 6.8 using 0.1 M HCl and phosphate buffer respectively. 500 mg of calcium ascorbate powder formulation was mixed with 500 mL of EDTA solution to obtain the calcium ascorbate solution. The pH of the calcium ascorbate solution was adjusted and agitated at 100 rpm. About 1 mL of the solution was carefully withdrawn at regular intervals of 0, 1, 2, 4, 6, and 8 h and made up to 100 mL with water. The ascorbate content was then analysed by HPLC method. Analysis was performed in triplicate and the mean cumulative percentage of released ascorbate was calculated and plotted against time to study the in vitro release kinetics of CAAS from the fenugreek galactomannan matrix.

[6] = human plasma, capsule, 80 mg trans-resveratrol per dose
[7] = human plasma, sachet, 80 mg trans-resveratrol per dose

Oc1ccc(/C=C/c2cc(O)cc(O)c2)cc1 [U-tRES, trans-resveratrol]
solubility in release medium [1]: insoluble | Tmax ([2]; both sexes, oral, 80 mg, human plasma, capsule, 80 mg trans-resveratrol per dose): 1.07 ± 0.26 h | Tmax ([2]; both sexes, oral, 80 mg, human plasma, sachet, 80 mg trans-resveratrol per dose): 1.21 ± 0.42 h | half-life ([2]; both sexes, oral, human plasma, sachet, 80 mg trans-resveratrol per dose, read-out: Free Resveratrol t1/2 (converted)): 1.58 ± 0.65 h | time after which plasma levels were undetectable ([2]; free resveratrol, sachet): 3 h | free resveratrol AUC0-24 h ([2]; human plasma, capsule, 80 mg): 32.05 ± 9.97 ng·h/mL | Free Resveratrol AUC0-24 [2, 6]: 32.05 ng·h/mL | Free Resveratrol Cmax [2, 6]: 16.34 ng/mL | Free Resveratrol t1/2 [2, 6]: 1.58 h | Free Resveratrol Cmax ([2]; human plasma, capsule, 80 mg trans-resveratrol per dose, listed as UtRES): 16.34 ± 5.67 ng/mL | Free Resveratrol AUC0-24 [2, 7]: 31.93 ng·h/mL | Free Resveratrol Cmax [2, 7]: 15.07 ± 5.10 ng/mL and 15.07 ng/mL | tolerability (side effects or adverse events) ([2]; n=16, both phases, 80±5 mg trans-resveratrol per dose): without any significant side effects or adverse events

O=c1c(O)c(-c2ccc(O)c(O)c2)oc2cc(O)ccc12 [UF, fisetin]
Tmax ([3]; 500 mg, single oral dose): 0.88 h | Cmax ([3]; 500 mg, single oral dose, normalized for the higher fisetin intake in UF): 9.97 ng/mL | AUC(0-t) ([3]; 500 mg, single oral dose, normalized for the higher fisetin intake in UF, read-out: Fisetin AUC0-12): 12.7 ng·h/mL | half-life ([3]; 500 mg, single oral dose, read-out: Fisetin t1/2 (converted)): 1.14 h | time after dosing up to which fisetin levels were quantifiable [3]: 2 h

calcium ascorbate [UF-CAAS]
AUC (plasma ascorbate) [4]: 311.4 ± 63.87^ μM · h/mL | MRT (plasma ascorbate) [4]: 22.67 ± 2.02 h | T1/2 (plasma ascorbate) [4]: 3.6 h | Tmax (plasma ascorbate) [4]: 1 h | Cmax ([4]; read-out: Cmax (plasma ascorbate)): 51.7 ± 21 µM | in vitro release behaviour [5]: sustained release
